Laboratory results: article PMC9785441, “A Broad Spectrum Antiparasitic Activity of Organotin (IV) Derivatives and Its Untargeted Proteomic Profiling Using Leishmania donovani” (Pathogens, 2022)

How the values were obtained:
[1] = test system: E. histolytica HM1:IMSS trophozoites; assay: E. histolytica trophozoite viability assay (CellTiter-Glo); assay type: cell-based, Entamoeba histolytica; conditions: Entamoeba histolytica, 48 h
Method: Trophozoites of E. histolytica HM1:IMSS were maintained in vitro as described in TYI-S-33 medium supplemented with penicillin (100 U/mL) and streptomycin (100 µg/mL). Test compounds were serially diluted and transferred to a white solid bottomed 96-well tissue culture plate (E&K Scientific, Swedesboro, NJ, USA) followed by addition of 5000 E. histolytica trophozoites per well for a final volume of 100 µL TYI-S-33 medium and a final concentration of compounds ranging from 50 to 0.39 µM. Metronidazole were used as positive control and assay plates were incubated for 48 h at 37 °C. The plates maintained kept anaerobically using the GasPak EZ Anaerobic Gas Generating Pouch System (VWR). Parasite viability was measured in triplicate using the CellTiter-Glo luminescence kit (Promega G9243) in an Envision plate reader (Perkin Elmer, Waltham, MA, USA). EC50 values were obtained using GraphPad Prism 9 Software.

[2] = test system: G. lamblia (WB strain) trophozoites; assay: G. lamblia trophozoite viability assay (CellTiter-Glo); assay type: cell-based, Giardia lamblia; conditions: Giardia duodenalis, 48 h
Method: Trophozoites of G. lamblia (WB strain) were maintained in vitro as described in TYI-S-33 medium supplemented with penicillin (100 U/mL) and streptomycin (100 µg/mL). Cells were harvested during the logarithmic phase of the growth for antiparasitic assessment. Test compounds were serially diluted and transferred to a white solid bottomed 96-well tissue culture plate (E&K Scientific, Swedesboro, NJ, USA) followed by addition of 5000 G. lamblia trophozoites for a final volume of 100 µL of TYI-S-33 medium and a final concentration of compounds ranging from 50.0 to 0.39 µM. Metronidazole was used as a positive control and assay plates were incubated for 48 h at 37 °C in the GasPak EZ Anaerobic Gas Generating Pouch System (VWR). Parasite viability was measured in triplicate using the CellTiter-Glo luminescence kit in an Envision plate reader. EC50 values were obtained using the GraphPad Prism 9 Software.

S. mansoni, adult worm = assay: S. mansoni adult worm ex vivo phenotypic screen (severity score); assay type: cell-based, Schistosoma mansoni; conditions: after 24 h; tested at 10, 5, 2.5 and 1.25 µM; EC50
Description: The Naval Medical Research Institute (NMRI) isolate of S. mansoni was used. The parasite was cycled between Biomphalaria glabrata snails and male Golden Syrian hamsters (infected at 4–6 weeks of age) as intermediate and definitive hosts, respectively. Hamsters were infected and maintained in accordance with protocols approved by the Institutional Animal Care and Use Committee (IACUC) at the University of California San Diego. The acquisition, preparation and in vitro maintenance of S. mansoni have been described. Briefly, adult worms were harvested from hamsters 42 days post-infection in RPMI or DMEM, and washed five times prior to maintenance overnight at 37 °C and 5% CO2 in Basch medium containing 4% heat-inactivated FBS, 100 µg/mL streptomycin and 100 U/mL penicillin.
Ex vivo screens with adults employed 24-well flat-bottomed plates and approximately 5 males and 2–3 females/well. The complex and often dynamic phenotypic responses that the schistosome parasite is capable of were observed using a Zeiss Axiovert A1 inverted microscope at 24 h. Observations were classified using a constrained nomenclature that involves simple “descriptors” to convey changes in shape, motility and appearance, and the inability of the male worm to adhere to the bottom of the well, compared to DMSO controls. Each descriptor was given a value of 1 and these were added up to yield a “severity score” with a maximum of 4. Evidence of degeneracy or death was awarded a value of 4 as was damage to the tegument (parasite’s surface) on the understanding this would compromise survival in vivo. […] Data were averaged across two experiments for each compound concentration tested.

[3] = test system: T. b. brucei Lister 427 bloodstream forms; assay: T. brucei bloodstream form viability assay (SYBR Green); assay type: cell-based, Trypanosoma brucei; conditions: Trypanosoma brucei; bloodstream forms, 72 h
Method: Bloodstream forms of T. b. brucei Lister 427 were cultured in complete HMI-9 medium in T25 suspension culture flasks (Thermo Scientific, Cat. 12-566-84) and maintained at 37 °C and 5% CO2. Trypanosomes were kept in log-phase growth and passaged every 48 h. […] Pentamidine were used as a positive control for T. brucei assay. Compounds were diluted with fresh HMI-9 medium (99 µL/well). Parasites in log-phase were suspended at 2 × 10^5 parasites/mL in HMI-9 medium and then added to each well (100 µL) to give 2 × 10^4 trypanosomes/well. Assay plates were incubated at 37 °C and 5% CO2 for 72 h. Parasite lysate was obtained by addition of 50 µL/well of lysis solution (0.012% saponin, 0.12% Triton X-100, 7.5 mM ETDA, 30 mM Tris, pH 7.5) containing 0.3 µL/mL SYBR Green I (10,000× in DMSO; Invitrogen, Carlsbad, CA, USA). Assay plates were incubated in the dark for 1 h at room temperature. Fluorescence was measured at 485 nm excitation and 535 nm emission wavelengths using an EnVision multilabel plate reader (PerkinElmer, Waltham, MA, USA). In each assay plate, parasite viability was normalized relative to positive (pentamidine) and negative (0.5% DMSO) controls in each assay plate. Assays were performed in biological and technical duplicates, and dose–response and EC50 data were generated with GraphPad Prism 9 using a sigmoidal four parameter logistic curve.

[4] = test system: L. donovani promastigotes; assay: L. donovani promastigote viability assay (resazurin); assay type: cell-based, Leishmania donovani; conditions: Leishmania donovani; Figure S1 dose response curves, RFU; read-out: IC50 against the promastigotes of L. donovani
Method: Promastigotes of L. donovani from late log phase culture were diluted to 2.0 × 10^6/mL in M-199 containing 10% FBS, 25 mM HEPES (Gibco 15630-080), 100 µM adenine, 12 mM NaHCO3, 10 µM folic acid, 1% penicillin/streptomycin (Gibco 15140-122) as described previously. Compounds and controls were transferred from compound plates to 384 well assay plates with the use of an acoustic transfer system (ATS, EDC Biosystems, Fremont, CA, USA). Promastigotes were incubated with compounds at 29 °C for 48 h. To measure parasite viability, resazurin sodium salt (7-hydroxy-3H-phenoxazin3-one 10-oxide) was dissolved in PBS and added to each well at a volume of 5 µL (final concentration of 44 µM). After incubating for 4 h at room temperature, fluorescence (ex 571 nm/em 584 nm) was recorded with an Envision (Perkin Elmer, Waltham, MA, USA) microplate fluorescence/luminescence reader. […] For positive and negative control amphotericin B and 0.5% DMSO was used, respectively. Dose response and EC50 analyses were obtained using GraphPad Prism 9 Software (Graph Pad Software Inc., San Diego, CA, USA).

[5] = test system: N. fowleri (KUL strain) trophozoites; assay: N. fowleri trophozoite viability assay (CellTiter-Glo); assay type: cell-based, Naegleria fowleri; conditions: Naegleria fowleri, 48 h
Method: N. fowleri (KUL strain) was cultured in Nelson’s medium supplemented with 10% FBS and kept at 37 °C. For all experiments, trophozoites were harvested during the logarithmic phase of growth. Test compounds were serially diluted and transferred to a white solid bottomed 96-well tissue culture plate (E&K Scientific, Swedesboro, NJ, USA) followed by addition of 10,000 N. fowleri trophozoites in Nelson’s medium in a final volume of 100 µL and a final concentration of compounds ranging from 50 to 0.39 µM. Amphotericin B was used as positive control and assay plates were incubated for 48 h at 37 °C. Parasite viability was measured as described for E. histolytica and G. lamblia. EC50 values were obtained using the GraphPad Prism 9 Software.

[6] = test system: T. cruzi (infecting C2C12); assay: T. cruzi intracellular amastigote assay in C2C12 cells (high content imaging); assay type: cell-based, Trypanosoma cruzi; conditions: Trypanosoma cruzi, C2C12, 72 h, read-out: EC50 T. cruzi (infecting C2C12)
Method: Mouse C2C12 myoblasts (ATCC CRL-1772) were cultivated in RPMI 1640 medium supplemented with 5% FBS and kept at 37 °C and 5% CO2. T. cruzi CAI-72 trypomastigotes were obtained from the supernatant of C2C12 cells infected four to seven days previously. For the assay, 500 C2C12 cells were mixed with 7500 T. cruzi parasites and seeded into 384-well plates at a 50 µL final volume. Test compounds and reference drugs (Benznidazole and K11777) were pre-spotted into the 384 well black bottom plates prior to the addition of cells and parasites with final assay concentration of 20 µM to 0.02 µM. The plates were incubated at 37 °C^, 5% CO2 for 72 h. Cultures were then fixed with 4% formaldehyde and 0.5 µg/mL DAPI (diamidino-2-phenylindole) was added for staining nucleic acids. Plates were kept protected from light for 1 h and then imaged in an ImageXpress Micro XLS automated high content imager (Molecular Devices, San Jose, CA, USA). Imaging and data analysis were performed as described for L. donovani amastigotes on biological triplicates.

In the case of `Cc1ncc([N+](=O)[O-])n1CCO` [Metronidazole, metronidazole, reference compound], the EC50 [1] is reported as 4.4 µM and the EC50 [2] is reported as 5.7 µM.
`O=C(C1CCCCC1)N1CC(=O)N2CCc3ccccc3C2C1` (stereo not shown) [Praziquantel, praziquantel, reference compound] was tested, and the “S. mansoni, adult worm: least concentration at which a severity score of 4 was recorded” value (S. mansoni, adult worm) was 1.25 µM.
Compound `N=C(N)c1ccc(OCCCCCOc2ccc(C(=N)N)cc2)cc1` [Pentamidine, pentamidine, reference compound] has an EC50 [3] of 0.01 µM.
For `C[C@@H]1[C@H](O)[C@@H](C)/C=C/C=C/C=C/C=C/C=C/C=C/C=C/[C@H](O[C@@H]2O[C@H](C)[C@@H](O)[C@H](N)[C@@H]2O)C[C@@H]2O[C@](O)(C[C@@H](O)C[C@@H](O)[C@H](O)CC[C@@H](O)C[C@@H](O)CC(=O)O[C@H]1C)C[C@H](O)[C@H]2C(=O)O` [AmpB, amphotericin B, reference compound], the IC50 [4] was 0.74 µM and the EC50 [5] was 0.09 µM.
With `O=C(Cn1ccnc1[N+](=O)[O-])NCc1ccccc1` [Benznidazole, benznidazole, reference compound] the EC50 [6] was 4.71 µM.
